Assay results taken from paper PMC5362474 (Oncotarget, 2017).

Legend:
[1] = system: Hela cells; assay: MTT proliferation assay on HeLa cells; assay type: cell-based; conditions: Homo sapiens
Method: (§1) MTT assay was then applied at 24 h, 48 h. […] However, all the compounds were active against Bel-7402, HepG2, A549 and HeLa cells to some extent. […] Before we began to design these compounds, we carefully studied these references. […] Hu C T, et al., Wang SY, et al. and Xie B, et al. reported that HepG2 was inhibited by inhibiting c-Met/HGF signaling pathway. […] Further research works on activities are currently under investigation and will be reported in due course. […] Proliferation of cells was evaluated by MTT assay. Cells were inoculated at 1.0 × 10^4 cells/mL with 200 μL in each well of 96-well plate and allowed to adhere to the plates overnight. […] After removal of the medium, cells were treated with 150 μL of DMSO and shaken for 15 min to completely dissolve the formazan crystals. The absorbances at 590 nm of the dissolved solutions were detected using a SpectraMAX190 microplate reader (Molecular Devices, USA).

[2] = system: HepG2 cells; assay: MTT proliferation assay on HepG2 cells; assay type: cell-based; conditions: Homo sapiens
Method: as §1

[3] = target: T1, recombinant human c-Met residues 974-end (Homo sapiens, UniProt P08581); assay: Inhibition of c-Met kinase (TR-FRET); assay type: biochemical; conditions: for inhibition at 0.19 µM / inhibition at 0.39 µM / inhibition at 0.78 µM / inhibition at 1.56 µM / inhibition at 3.12 µM / inhibition at 6.25 µM / inhibition at 12.5 µM / inhibition at 25 µM / inhibition at 50 µM / inhibition at 100 µM: read-out: Inhibitory rate on c-Met kinase; for inhibition at 12.5 µM: 12.50 μM; for IC50: TR-FRET, read-out: IC50 against c-Met kinase; for c-Met Inhibition rate (%): concentration not given
T1 construct: recombinant human c-Met residues 974-end; 6His; purchased Millipore
T1 sequence (P08581 974-1390 limits assumed): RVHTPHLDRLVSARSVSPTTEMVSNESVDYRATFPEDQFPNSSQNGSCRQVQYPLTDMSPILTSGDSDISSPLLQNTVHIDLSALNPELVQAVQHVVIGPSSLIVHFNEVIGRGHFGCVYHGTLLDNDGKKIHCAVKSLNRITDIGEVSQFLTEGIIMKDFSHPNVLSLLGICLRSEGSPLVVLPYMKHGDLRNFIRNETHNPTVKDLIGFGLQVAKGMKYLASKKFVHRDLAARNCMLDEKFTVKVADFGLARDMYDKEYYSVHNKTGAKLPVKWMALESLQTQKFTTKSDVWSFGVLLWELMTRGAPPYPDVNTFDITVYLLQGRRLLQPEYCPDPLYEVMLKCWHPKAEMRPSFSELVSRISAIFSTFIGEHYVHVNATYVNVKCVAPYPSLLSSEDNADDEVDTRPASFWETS
Method: The inhibitions of c-Met kinase were investigated referred to a published literature. The IC50 values were detected using TR-FRET. 50 nM 6 His-tagged recombinant human c-Met residues 974-end (Millipore) was cultured in medium containing 2.5 m mol/L MnCl2, 10 m mol/L MgCl2, 20 m mol/L Tris, 2 m mol/L DTT and 0.01% Tween 20 with 5 m mol/L ATP and 200 n mol/L 5FAM-KKK -[…]-NH2 with 25 μL at room temperature for 60 min. Compounds were made up to 100 μM solutions and were tested with 10 concentration gradients by two times dilutions. Each group was tested for three times Reactions were termined by IMAP stop solution. Plates were incubated for an overnight and analyzed by using AiphaQuest.

[4] = system: Bel-7402 cells; assay: MTT proliferation assay on Bel-7402 cells; assay type: cell-based; conditions: Homo sapiens
Method: as §1

[5] = system: A549 cells; assay: MTT proliferation assay on A549 cells; assay type: cell-based; conditions: Homo sapiens
Method: as §1

Row | Structure (SMILES) | IC50 ([1]; 24 h) | IC50 ([1]; 48 h) | IC50 ([2]; 24 h) | IC50 ([2]; 48 h) | inhibition at 0.19 µM [3] | inhibition at 0.39 µM [3] | inhibition at 0.78 µM [3] | inhibition at 1.56 µM [3] | inhibition at 3.12 µM [3] | inhibition at 6.25 µM [3] | inhibition at 12.5 µM [3] | inhibition at 25 µM [3] | inhibition at 50 µM [3] | inhibition at 100 µM [3] | IC50 [3] | c-Met Inhibition rate (%) [3] | IC50 ([4]; 24 h) | IC50 ([4]; 48 h) | IC50 ([5]; 24 h) | IC50 ([5]; 48 h)
1 | CC(=O)OC1C/C(C)=C/CC/C(C)=C/CC1=C(C)C (centres unmarked) [Compound 3a, (3E,7E)-3,7-dimethyl-10-(propan-2-ylidene)cyclodeca-3,7-dien-1-yl-acetate] | 149.3 ± 1.33 µM | 153 ± 1.65 µM | 147.7 ± 1.47 µM | 152 ± 1.71 µM | 26.3 ± 0.37% | 40 ± 0.43% | 47.2 ± 0.57% | 58.5 ± 0.69% | 65 ± 0.74% | 69 ± 0.76% | 74.6 ± 0.81% | 79.3 ± 0.85% | 84.3 ± 0.93% | 86.9 ± 0.97% | 1060 nM | 31% | 157.3 ± 1.33 µM | 166.2 ± 1.51 µM | 162.2 ± 1.55 µM | 169 ± 1.74 µM
2 | CC(C)=C1C/C=C(\C)CC/C=C(\C)CC1OC(=O)c1ccc(C(F)(F)F)cc1 (centres unmarked) [Compound 3d, (3E,7E)-3,7-dimethyl-10-(propan-2-ylidene)cyclodeca-3,7-dien-1-yl-4-(trifluoromethyl)benzoate] | 91.25 ± 0.87 µM | 93.31 ± 0.9 µM | 74.7 ± 0.99 µM | 78.85 ± 0.77 µM | 31.56 ± 0.27% | 40.88 ± 0.35% | 47.08 ± 0.44% | 59.03 ± 0.57% | 64.22 ± 0.59% | 69 ± 0.74% | 75.5 ± 0.88% | 80.6 ± 0.84% | 85.4 ± 0.96% | 87.7 ± 0.95% | 920 nM | 38% | 80.1 ± 1.19 µM | 77.56 ± 0.77 µM | 93.48 ± 0.79 µM | 95.9 ± 0.97 µM
3 | CC(C)=C1C/C=C(\C)CC/C=C(\C)CC1O (centres unmarked) [Compound 2, (3E,7E)-3,7-dimethyl-10-(propan-2-ylidene)cyclodeca-3,7-dienol] | 157.3 ± 1.47 µM | 163 ± 1.73 µM | 155 ± 1.75 µM | 161.5 ± 1.32 µM | 20 ± 0.27% | 34.9 ± 0.37% | 43.1 ± 0.52% | 55.2 ± 0.61% | 59.88 ± 0.53% | 64.16 ± 0.64% | 69.98 ± 0.59% | 74.21 ± 0.69% | 78.2 ± 0.88% | 81.2 ± 0.94% | 1770 nM | 23% | 167 ± 1.91 µM | 166 ± 1.83 µM | 177 ± 1.8 µM | 185 ± 1.99 µM
4 | CC(C)=C1C/C=C(\C)CC/C=C(\C)CC1=O [Compound 1, germacrone, reference compound] | 160.7 ± 1.54 µM | 168 ± 1.81 µM | 170 ± 2.07 µM | 175 ± 1.88 µM | 23.4 ± 0.33% | 39.1 ± 0.45% | 47 ± 0.55% | 58.8 ± 0.61% | 65.4 ± 0.67% | 69.2 ± 0.77% | 73.7 ± 0.89% | 77.5 ± 0.97% | 82.1 ± 1.21% | 88 ± 1.01% | 1150 nM | 27% | 173.5 ± 1.53 µM | 177 ± 1.97 µM | 180 ± 2.14 µM | 177 ± 1.87 µM

Compounds with a lower IC50 ([1]; 24 h), results first:

Row | IC50 ([1]; 24 h) | IC50 ([1]; 48 h) | IC50 ([2]; 24 h) | IC50 ([2]; 48 h) | inhibition at 0.19 µM [3] | inhibition at 0.39 µM [3] | inhibition at 0.78 µM [3] | inhibition at 1.56 µM [3] | inhibition at 3.12 µM [3] | inhibition at 6.25 µM [3] | inhibition at 12.5 µM [3] | inhibition at 25 µM [3] | inhibition at 50 µM [3] | inhibition at 100 µM [3] | IC50 [3] | c-Met Inhibition rate (%) [3] | IC50 ([4]; 24 h) | IC50 ([4]; 48 h) | IC50 ([5]; 24 h) | IC50 ([5]; 48 h) | Structure (SMILES)
5 | 86.55 ± 0.8 µM | 88.24 ± 0.84 µM | 72.48 ± 0.64 µM | 69.98 ± 0.68 µM | 28.28 ± 0.22% | 42.75 ± 0.35% | 48.01 ± 0.39% | 61.4 ± 0.64% | 67.5 ± 0.77% | 70.31 ± 0.59% | 75.7 ± 0.78% | 80 ± 0.91% | 85.3 ± 0.87% | 88.4 ± 0.99% | 870 nM | 41% | 75.9 ± 0.81 µM | 79.2 ± 0.89 µM | 90.11 ± 0.75 µM | 88.21 ± 0.81 µM | CC(C)=C1C/C=C(\C)CC/C=C(\C)CC1OC(=O)/C=C\c1ccccc1 (centres unmarked) [Compound 3e, (Z)-(3E,7E)-3,7-dimethyl-10-(propan-2-ylidene)cyclodeca-3,7-dien-1-yl-3-phenylacrylate]
6 | 84.1 ± 0.71 µM | 82.54 ± 0.64 µM | 70.2 ± 0.87 µM | 67.84 ± 0.48 µM | 33.8 ± 0.45% | 42.6 ± 0.51% | 48 ± 0.62% | 59.6 ± 0.66% | 64.5 ± 0.73% | 70 ± 0.81% | 73.79 ± 0.69% | 78.9 ± 0.87% | 83.7 ± 0.95% | 87.4 ± 1.2% | 830 nM | 47% | 75.5 ± 1.05 µM | 78.55 ± 0.51 µM | 88.52 ± 0.53 µM | 87.2 ± 0.94 µM | CC(C)=C1C/C=C(\C)CC/C=C(\C)CC1OC(=O)c1cccc(C)c1 (centres unmarked) [Compound 3c, (3E,7E)-3,7-dimethyl-10-(propan-2-ylidene)cyclodeca-3,7-dien-1-yl-3-methylbenzoate]
7 | 83.64 ± 0.73 µM | 83.78 ± 0.76 µM | 68.2 ± 0.69 µM | 71.5 ± 0.82 µM | 35.6 ± 0.44% | 46.9 ± 0.51% | 54.47 ± 0.47% | 63.4 ± 0.66% | 67.05 ± 0.59% | 72.56 ± 0.67% | 77.8 ± 0.81% | 81.24 ± 0.77% | 86 ± 0.93% | 88.8 ± 1.11% | 560 nM | 56% | 75.9 ± 0.96 µM | 74.2 ± 0.83 µM | 84.85 ± 0.71 µM | 81.9 ± 0.88 µM | CC(C)=C1C/C=C(\C)CC/C=C(\C)CC1OC(=O)c1ccc(C)cc1 (centres unmarked) [Compound 3b, (3E,7E)-3,7-dimethyl-10-(propan-2-ylidene)cyclodeca-3,7-dien-1-yl-4-methylbenzoate]
